The record followed here is patent US20040121965A1, “Method of treating resistant tumors” (Wyeth Holdings Corporation, priority 2002, published 2004).

Where two headings read alike, the source gives them in different places.

One test concerns KB-3-1. Put plainly: Cell survival assay (SRB), KB-3-1. It is filed as cell-based, human. The following applies: Homo sapiens, KB 3-1, KB-3-1 cells (paclitaxel-sensitive parent); read-out: In vitro IC50 (nM) KB-3-1. An excerpt:
Cells lines with previously known mechanisms of resistance. […] Res. 8: 207-218,1996); KB-3-1 (parental derived from an epidermoid carcinoma), KB-8.5, KB-V1 (Akiyama S-I, Fojo A, Hanover J A, Pastan I, Gottesman M M. Isolation and genetic characterization of human KB cell lines resistant to multiple drugs. Somatic Cell Mol. Gen., 11: 117-126,1985; Shen D-W, Cardarelli C, Hwang J, Cornwell M, Richert N, Ishii S, Pastan I, Gottesman MM. […] J. Biol. Chem., 261: 7762-7770, 1986); and HL-60 (parental derived from human leukemia) and HL60/AR (McGrath T., Center M. S. Adriamycin resistance in HL60 cells in the absence of detectable P-glycoprotein. Biochem. Res. Commun., 145:1171-1176,1987); A549 and A549.EpoB40 (He L., Yang C.-P.H., Horwitz S. B. Mutations in p-tubulin map to domains involved in regulation of microtubule stability in epothilone-resistant cell lines. Molecular Cancer Therapeutics. 1: 3-10, 2001). HCT-15 human colon carcinoma and DLD-1 human colon carcinoma are obtained from American Tissue Culture Collection. The MX-1W carcinoma is a Wyeth variant orginally obtained as MX-1 breast carcinoma from the National Cancer Institute. Cell lines selected for resistance to Representative Example 129. KB-3-1 cells are selected for resistance to Example 129 by chronically exposing cells to increasing concentrations of Example 129.
2.2. Cell Survival Assay: Standard Pharmacological Test Procedure. The concentration of candidate inhibitor required to inhibit 50% of cell growth (IC50) is done according to previously reported methods. […] Compounds are serially diluted into media as 2× stocks and 100 μl added to cells in duplicate. Compounds are incubated with cells for 3 days. At the end of the incubation period the sulforhodamine B (SRB) assay, which measures protein content as an assessment of cell survival, is performed as described previously (Skehan P, Storeng R, Scudiero D, Monks A, McMahon J, Vistica D, Warren J T, Bokesch H, Kenney S, Boyd MR. New calorimetric cytotoxicity assay for anticancer-drug screening. J Natl Cancer Inst 1990 Jul 4;82(13):1107-12) with some modification as follows. For KB-3-1 cells with 20% FCS, media is gently decanted and replaced with 200 μl of serum-free media mixed with cold 50% TCA for a final concentration of 10% TCA. The plates are incubated for 1 hr at 4° C., followed by washing 5 times in cold distilled water, then air dried overnight. The fixed cells are stained for 10 min with 80 μl of 0.04% SRB solution prepared in 1% glacial acetic acid. Stain is discarded and plates washed 5 times in 1% glacial acetic acid, then air-dried until completely dry. Stained cell product is dissolved in 150 μl of 10 mM Trizma Base and placed on a shaker for 20 minutes until fully dissolved. Absorbance is read on a Victor V multi-label plate reader (Perkin Elmer, Gaithersburg, Md.).

The subject of another test is KB-8-5 (MDR1+). Put plainly: Cell survival assay (SRB), KB-8-5 (MDR1+). The note with it: for IC50: Homo sapiens, MDR1, read-out: In vitro IC50 (nM) KB85.
The next test concerns KB-V1 (MDR1++). Put plainly: Cell survival assay (SRB), KB-V1 (MDR1++). The note with it: for IC50: Homo sapiens.
Setting [1] is: read-out: In vitro IC50 (nM) KBV1.

By IC50 is commonly meant the concentration that inhibits the measured activity by half.

For the molecule `CN[C@H](C(=O)N[C@H](C(=O)N(C)[C@H](/C=C(\C)C(=O)O)Cc1ccccc1)C(C)(C)C)C(C)(C)c1ccccc1` [Example 136, (E,4S)-4-[((2S)-3,3-dimethyl-2-{[(2S)-3-methyl-2-(methylamino)-3-phenylbutanoyl]amino}butanoyl)(methyl)amino]-2-methyl-5-phenyl-2-pentenoic Acid], the IC50 was 479 nM with KB-3-1, 1320 nM in the test on KB-8-5 (MDR1+) and at least 3000 nM in the test with KB-V1 (MDR1++) (setting [1]). Besides, the “Ratio KB85/KB” value with KB-8-5 (MDR1+) was 2.8. In the test on KB-V1 (MDR1++), the “Ratio KBV1/KB” value is given as 6.3.
Taken in the same sequence, the figures for `CN[C@@H](C(=O)N[C@H](C(=O)N(C)[C@H](/C=C(\C)C(=O)O)C(C)C)C(C)(C)C)C(C)(C)c1cccc(F)c1` [Example 61, 3-Fluoro-N,β,β-trimethyl-D-phenylalanyl-N^1-[(1S,2E)-3-carboxy-1-isopropyl-2-butenyl]-N^1,3-dimethyl-L-valinamide] were 12.6 nM, 18.6 nM, 1000 nM, 1.5 and 79.4.
Taken in the same sequence, the figures for `CN[C@@H](C(=O)N[C@H](C(=O)N(C)[C@H](/C=C(\C)C(=O)O)C(C)C)C(C)(C)C)C1(c2ccccc2)CCCC1` [Example 72, (2E,4S)-2,5-dimethyl-4-(methyl{3-methyl-N-[(2R)-2-(methylamino)-2-(1-phenylcyclopentyl)ethanoyl]-L-valyl}amino)-2-hexenoic Acid] were 59.3 nM, 63.1 nM, 2660 nM, 1.1 and 45.0.
Consider `CN[C@H](C(=O)N[C@H](C(=O)N(C)[C@H](C[C@H](C)C(=O)O)C(C)C)C(C)(C)C)C(C)(C)c1ccccc1` [Example 123, N,β,β-trimethyl-L-phenylalanyl-N^1-[(1R,3S)-3-carboxy-1-isopropylbutyl]-N^1,3-dimethyl-L-valinamide], for which the IC50 was 891 nM in the test with KB-3-1, 537 nM with KB-8-5 (MDR1+) and over 3000 nM in the test on KB-V1 (MDR1++) (read-out: In vitro IC50 KBV1). For the same molecule, the “Ratio KB85/KB” value with KB-8-5 (MDR1+) turned out to be 0.6.
Turning to `CN[C@H](C(=O)N[C@H](C(=O)N(C)[C@H](/C=C(\C)C(=O)O)C(C)C)C(C)(C)C)C(C)(C)c1ccc(Br)cc1` [Example 43, 4-bromo-N,β,β-trimethylphenylalanyl-N^1-[(1S,2E)-3-carboxy-1-isopropyl-2-butenyl]-N^1,3-dimethyl-L-valinamide], the values for the IC50 with KB-3-1, with KB-8-5 (MDR1+) and in the test on KB-V1 (MDR1++) (setting [1]) were 1.5 nM, 4.4 nM and 105 nM, respectively. The “Ratio KB85/KB” value in the test with KB-8-5 (MDR1+) was 2.9. In the test with KB-V1 (MDR1++), the “Ratio KBV1/KB” value turned out to be 69.8.
In the case of `CN[C@H](C(=O)N[C@H](C(=O)N(C)[C@H](/C=C(\C)C(=O)O)C(C)C)C(C)(C)C)C(C)(C)c1ccc(C)cc1` [Example 11, N,β,β,4-Tetramethyl-L-phenylalanyl-N^1-[(1S,2E)-3-carboxy-1-isopropyl-2-butenyl]-N^1,3-dimethyl-L-valinamide], the IC50 in the test with KB-3-1 is 1.5 nM; with KB-8-5 (MDR1+), 2.6 nM; with KB-V1 (MDR1++) (setting [1]), 55 nM. Moreover, the “Ratio KB85/KB” value in the test with KB-8-5 (MDR1+) was found to be 1.7. Besides, the “Ratio KBV1/KB” value in the test with KB-V1 (MDR1++) came to 36.7.
Regarding `CN[C@H](C(=O)N[C@H](C(=O)N(C)[C@H](/C=C(\C)C(=O)O)C(C)C)C(C)(C)C)C(C)(C)c1ccc(/C=C/c2ccccc2)cc1` [Example 146, N,β,β-trimethyl-4-[(E)-2-phenylvinyl]-L-phenylalanyl-N^1-[(1S,2E)-3-carboxy-1-isopropylbut-2-enyl]-N^1,3-dimethyl-L-valinamide], the values for the IC50 in the test with KB-3-1, with KB-8-5 (MDR1+) and in the test on KB-V1 (MDR1++) (setting [1]) were 1.3 nM, 3.1 nM and 70 nM, respectively. For the same molecule, the “Ratio KB85/KB” value in the test with KB-8-5 (MDR1+) is reported as 2.4. Also, in the test with KB-V1 (MDR1++), the “Ratio KBV1/KB” value was found to be 53.8.
`CN[C@@H](C(=O)N[C@H](C(=O)N(C)[C@H](/C=C(\C)C(=O)O)C(C)C)C(C)(C)C)C(C)(C)c1cccc(Cl)c1` [Example 3, 3-Chloro-N,β,β-trimethyl-D-phenylalanyl-N^1-[(1S,2E)-3-carboxy-1-isopropyl-2-butenyl]-N^1,3-dimethyl-L-valinamide]: the figures for the IC50 in the test on KB-3-1, in the test on KB-8-5 (MDR1+) and in the test on KB-V1 (MDR1++) (setting [1]) were 15.1 nM, 20 nM and 1150 nM, respectively. Further, the “Ratio KB85/KB” value in the test with KB-8-5 (MDR1+) came out at 1.3. For the same molecule, the “Ratio KBV1/KB” value in the test on KB-V1 (MDR1++) came out at 76.0.
Regarding `CN[C@H](C(=O)N[C@H](C(=O)N(C)[C@H](/C=C(\C)C(=O)O)C(C)C)C(C)(C)C)C(C)(C)c1cccc(O)c1` [Example 47, 3-Hydroxy-N,β,β-trimethylphenylalanyl-N^1-[(1S,2E)-3-carboxy-1-isopropyl-2-butenyl]-N^1,3-dimethyl-L-valinamide], the IC50 is 7 nM with KB-3-1, 37.5 nM with KB-8-5 (MDR1+) and 2310 nM in the test on KB-V1 (MDR1++) (setting [1]). Further, the “Ratio KB85/KB” value in the test on KB-8-5 (MDR1+) was found to be 5.4. Also, in the test on KB-V1 (MDR1++), the “Ratio KBV1/KB” value is 329.7.
As to `C/C(=C\[C@H](C(C)C)N(C)C(=O)[C@@H](NC(=O)[C@@H](N)Cc1cccc2ccccc12)C(C)(C)C)C(=O)O` [Example 130, (2E,4S)-4-[((2S)-2-{[(2S)-2-Amino-3-(1-naphthyl)propanoyl]amino}-3,3-dimethylbutanoyl)(methyl)amino]-2,5-dimethyl-2-hexenoic Acid], the IC50 is 60.2 nM in the test with KB-3-1, 87 nM in the test with KB-8-5 (MDR1+) and at least 3000 nM in the test with KB-V1 (MDR1++) (setting [1]). Also, the “Ratio KB85/KB” value with KB-8-5 (MDR1+) came out at 1.4. Besides, in the test with KB-V1 (MDR1++), the “Ratio KBV1/KB” value came out at 49.8.
The corresponding values for `CN[C@H](C(=O)N[C@H](C(=O)N(C)[C@H](/C=C(\C)C(=O)O)C(C)C)C(C)(C)C)C(C)(C)Cc1ccccc1` [Example 48, N,3-Dimethyl-4-phenyl-L-valyl-N^1-[(1S,2E)-3-carboxy-1-isopropyl-2-butenyl]-N^1,3-dimethyl-L-valinamide] are 2.7 nM, 6 nM, 219 nM, 2.2 and 81.0.
Taken in the same sequence, the figures for `CN[C@@H](C(=O)N[C@H](C(=O)N(C)[C@H](/C=C(\C)C(=O)O)C(C)C)C(C)(C)C)C(C)(C)c1ccc(C)cc1` [Example 12, N,β,β,4-Tetramethyl-D-phenylalanyl-N^1-[(1S,2E)-3-carboxy-1-isopropyl-2-butenyl]-N^1,3-dimethyl-L-valinamide] were 17 nM, 27.5 nM, 1070 nM, 1.6 and 63.1.
Regarding `CCCC[C@@H](/C=C(\C)C(=O)O)N(C)C(=O)[C@@H](NC(=O)[C@@H](NC)C(C)(C)c1ccccc1)C(C)(C)C` [Example 75, N,β,β-Trimethyl-L-phenylalanyl-N^1-[(1S,2E)-1-butyl-3-carboxybut-2-enyl]-N^1,3-dimethyl-L-valinamide], the IC50 amounted to 36 nM in the test on KB-3-1, 78 nM in the test on KB-8-5 (MDR1+) and 2130 nM in the test with KB-V1 (MDR1++) (setting [1]). Besides, the “Ratio KB85/KB” value in the test on KB-8-5 (MDR1+) is reported as 2.2. For the same molecule, in the test on KB-V1 (MDR1++), the “Ratio KBV1/KB” value came to 60.0.
Consider `C=CC(C)(C)[C@H](NC)C(=O)N[C@H](C(=O)N(C)[C@H](/C=C(\C)C(=O)O)C(C)C)C(C)(C)C` [Example 121, (2E, 4S)-4-[((2S)-2-{[3,3-dimethyl-2-(methylamino)-4-pentenoyl]amino}-3,3-dimethylbutanoyl)(methyl)amino]-2,5-dimethyl-2-hexenoic Acid], for which the results for the IC50 with KB-3-1, in the test with KB-8-5 (MDR1+) and with KB-V1 (MDR1++) (setting [1]) were 136 nM, 186 nM and at least 3000 nM, respectively. For the same molecule, the “Ratio KB85/KB” value in the test with KB-8-5 (MDR1+) amounted to 1.4. For the same molecule, in the test on KB-V1 (MDR1++), the “Ratio KBV1/KB” value was 22.0.
Taken in the same sequence, the figures for `CN[C@H](C(=O)N[C@H](C(=O)N(C)[C@H](/C=C(\C)C(=O)O)C(C)C)C(C)(C)SCc1ccc(OC)cc1)C(C)(C)c1ccc(OC)cc1` [Example 83, N,O,β,β-tetramethyl-L-tyrosyl-N^1-[(1S,2E)-3-carboxy-1-isopropyl-2-butenyl]-3-[(4-methoxybenzyl)sulfanyl]-N^1-methyl-L-valinamide] were 15.8 nM, 43.7 nM, 2090 nM, 2.8 and 132.2.
